Series [1] relates to Human immunodeficiency virus 1. The series is described as follows: Antiviral activity against HIV1 3B expressing wild type reverse transcriptase infected in human MT4 cells assessed as protection against virus-induced cytopathic effect after 5 days by MTT assay. The series is classed as functional, cell-based. The following applies: Human immunodeficiency virus 1, 3B, MT4, 120 h. For orientation: Protection from cytopathic effect is a common read-out in antiviral testing.

The nature of series [2]: Cytotoxicity against mock-infected human MT4 cells assessed as reduction in cell viability after 5 days by MTT assay. The series is classed as toxicity, cell-based. (In general: Formazan colour is commonly taken as a measure of viable cells.)
Series [3] can be described thus: Selectivity index, ratio of CC50 for mock-infected human MT4 cells to EC50 for HIV1 RES056 expressing reverse transcriptase K103N/Y181C double mutant. As to conditions: read-out: Ratio CC50/EC50. The series is classed as toxicity, cell-based.
Series [4] is described as follows: Solubility of the compound. In kind it is physicochemical.
Series [5] addresses Human immunodeficiency virus type 1 reverse transcriptase (Human immunodeficiency virus 1, UniProt Q72547). The series can be described thus: Inhibition of recombinant wild type HIV1 p66/p51 using poly(rA) template/oligo(dT)16 primer after 40 mins by PicoGreen-based spectrofluorometric method.
Series [6] can be described thus: Selectivity index, ratio of CC50 for mock-infected human MT4 cells to EC50 for HIV1 3B expressing wild type reverse transcriptase. In kind it is toxicity, cell-based. As to conditions: read-out: Ratio CC50/EC50.
The subject of series [7] is Human immunodeficiency virus 1. The series is described as follows: Antiviral activity against HIV1 RES056 expressing reverse transcriptase K103N/Y181C double mutant infected in human MT4 cells assessed as protection against virus-induced cytopathic effect after 5 days by MTT assay. The series is classed as functional, cell-based. The following applies: Human immunodeficiency virus 1, RES056, MT4, 120 h.

Usually EC50 stands for the concentration at which the effect is half-maximal. In general, CC50 refers to the concentration giving 50% cytotoxicity. A word on the solubility: it is the dissolved amount per volume that the medium holds. Read a low solubility as little dissolved substance. One may read the IC50 as the concentration at which inhibition is half-maximal.

Structures are written as SMILES.

Regarding `Cc1cc(C#N)cc(C)c1Oc1cc(Cl)nc(NC2CCN(Cc3ccc(S(C)(=O)=O)cc3)CC2)c1`, the EC50 was 0.0091 µM in series [1] and greater than 1.5 µM in series [7]. Also, the 50% cytotoxic concentration (CC50) at 120 h in series [2] amounted to 1.5 µM. The selectivity ratio is less than 1 in series [3] and 168 in series [6]. This compound registered a solubility in series [4] greater than 48 µM. Also, the IC50 in series [5] amounted to 0.08 µM.
As for `COc1cc(Oc2c(C)cc(C#N)cc2C)cc(NC2CCN(Cc3ccncc3)CC2)n1`, the concentration giving a half-maximal response (EC50) amounted to 0.013 µM in series [1] and 6.2 µM in series [7]. In series [2], the cytotoxic concentration (CC50) at 120 h worked out at 20.8 µM. Moreover, the selectivity ratio in series [3] is 3; in series [6], 1570. Further, the solubility in series [4] is greater than 11 µM. The IC50 in series [5] was found to be 0.081 µM.
With `COc1cc(Oc2c(C)cc(C#N)cc2C)cc(NC2CCN(Cc3ccc(S(N)(=O)=O)cc3)CC2)n1`, the EC50 in series [1] was determined as 0.0078 µM; in series [7], 6.8 µM. Also, the half-maximal cytotoxic concentration (CC50) at 120 h in series [2] came to 10 µM. In addition, the selectivity ratio in series [3] was found to be 1; in series [6] it was 1280. This compound also registered a solubility in series [4] greater than 48 µM. For the same compound, the IC50 in series [5] is 0.132 µM.
Take `Cc1cc(C)c(Oc2cc(Cl)nc(NC3CCN(Cc4ccc(S(N)(=O)=O)cc4)CC3)c2)c(C)c1`: the EC50 in series [1] was 0.033 µM; in series [7] it was no less than 9.4 µM. For the same compound, the half-maximal cytotoxic concentration (CC50) at 120 h in series [2] was determined as 5.4 µM. Moreover, the selectivity ratio in series [3] is no more than 1; in series [6] it was 161. In addition, in series [4], the solubility is greater than 49 µM. Besides, the IC50 in series [5] worked out at 0.159 µM.
For the compound `Cc1cc(C)c(Oc2cc(Nc3ccc(C#N)cc3)nc(OCCCN3CCOCC3)c2)c(C)c1`, the EC50 in series [1] was 1.1 µM; in series [7], greater than 18.8 µM. In addition, the CC50 at 120 h in series [2] is 18.8 µM. Besides, the values for the selectivity ratio in series [3] and in series [6] were less than 1 and 18, respectively. In addition, the solubility in series [4] is greater than 11 µM. The IC50 in series [5] worked out at 4.06 µM.
In the case of `Cc1cc(C)c(Oc2cc(Cl)nc(NC3CCN(Cc4ccccc4)CC3)c2)c(C)c1`, the results for the 50% effective concentration (EC50) in series [1] and in series [7] were 0.15 µM and greater than 9.7 µM, respectively. For the same compound, the CC50 at 120 h in series [2] came out at 9.7 µM. The results for the selectivity ratio in series [3] and in series [6] were less than 1 and 63, respectively. In series [4], the solubility was greater than 287 µM. Further, the IC50 in series [5] was found to be 0.287 µM.
Regarding `Cc1cc(C#N)cc(C)c1Oc1cc(Cl)nc(NC2CCN(Cc3ccc(S(N)(=O)=O)cc3)CC2)c1`, the EC50 is 0.0074 µM in series [1] and greater than 7 µM in series [7]. Besides, the CC50 at 120 h in series [2] was determined as 7 µM. For the same compound, the values for the selectivity ratio in series [3] and in series [6] were less than 1 and 946, respectively. In series [4], this compound gave a solubility greater than 48 µM. Also, the half-maximal inhibitory concentration (IC50) in series [5] is 0.057 µM.

The record behind these values is ChEMBL document CHEMBL3860023, “Structural optimization of pyridine-type DAPY derivatives to exploit the tolerant regions of the NNRTI binding pocket” (Eur J Med Chem, 2016).
